Entries after “also recorded” stand apart in the source; their conditions may differ. Where no end group is shown, it is not given here.
Tests used:
[1] = molecular target: T1, recombinant human PD-L1 protein expressed on CHO cell surface (Homo sapiens, UniProt Q9NZQ7); assay: Binding of FITC-labeled PPLC peptide to PD-L1 expressed on CHO cell surface (flow cytometry, fluorescence confocal); format: cell-based; conditions: CHO cells transfected with human PD-L1, FITC-labeled peptide, flow cytometry and confocal
T1 construct: expressed in transfected cells; host or cells: CHO cell line
Method: (§1) The recombinant plasmid expressing recombinant human PD-L1 protein was transfected into CHO cell line and incubated for 36 hours. After incubation, anti-PD-L1 monoclonal antibody or PPLC peptide labeled with FITC was added and incubated at 4° C. for 30 minutes. After incubation, flow cytometry was performed (FIG. 3). After transfection of the plasmid, the cells were further cultured for 36 hours, and then the PPLC peptide labeled with FITC was added and incubated at 37° C. for 30 minutes. After incubation, fluorescence confocal detection was performed (FIG. 4).
as §1, with “added,” for “added”, “performed.” for “performed (FIG. 3).”, “performed.” for “performed (FIG. 4).”

PD-1/PD-L1 = PD-1/PD-L1 (Homo sapiens, UniProt Q9NZQ7); assay: Competitive binding ELISA between PPLC peptide and PD-1 to PD-L1 protein; conditions: 2 μg/ml coated PD-L1, 1 μg/ml PD-1 protein
Method: (§2) A 96-well ELISA plate was coated with 2 μg/ml PD-L1 protein at 4° C. overnight. Different concentrations of PPLC peptide and 1 μg/ml PD-1 protein were mixed and incubated together. After incubation, rabbit anti-human PD-1 monoclonal antibody was added as primary antibody, and then HRP-conjugated goat anti-rabbit IgG monoclonal antibody was added as secondary antibody. After ABTS color development, the OD value at 410 nm was measured using a M5 microplate reader, and GraphPad Prism 6 was used for plotting and analysis.
as §2, with “1 μg/ml of PD-1 protein” for “1 μg/ml PD-1 protein”

mouse tumor = assay: Effect of PPLC peptide on tumor volume and survival in mouse tumor model; format: in vivo; conditions: subcutaneous tumors in female Balb/c mice
Method: (§3) The experimental animals were divided into two groups: PBS group and PPLC group. Tumors were injected subcutaneously into 6 weeks old female Balb/c mice. Two weeks later, when the tumor size reached 100 mm^3, PPLC drug treatment was performed. The size of the mouse tumor was measured daily and the change was recorded.
as §3, with “into” for “into 6 weeks old”

T1 sequence (Q9NZQ7 19-290): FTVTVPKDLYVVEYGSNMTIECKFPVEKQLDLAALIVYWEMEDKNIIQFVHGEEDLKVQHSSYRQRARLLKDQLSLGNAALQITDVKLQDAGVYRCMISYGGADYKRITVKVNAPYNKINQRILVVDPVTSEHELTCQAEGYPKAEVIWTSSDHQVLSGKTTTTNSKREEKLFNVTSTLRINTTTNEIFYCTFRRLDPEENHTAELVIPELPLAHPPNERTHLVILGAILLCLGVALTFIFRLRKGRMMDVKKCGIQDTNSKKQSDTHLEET
Chain of PD-1/PD-L1 (Q9NZQ7 19-238 limits assumed): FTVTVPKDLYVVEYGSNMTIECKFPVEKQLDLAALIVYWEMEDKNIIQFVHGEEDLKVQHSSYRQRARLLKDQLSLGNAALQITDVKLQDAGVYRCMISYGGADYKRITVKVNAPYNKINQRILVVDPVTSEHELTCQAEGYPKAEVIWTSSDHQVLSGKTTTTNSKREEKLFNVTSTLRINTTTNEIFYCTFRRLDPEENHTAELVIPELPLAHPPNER

**Q.** With VSVSHFQKVWVV [PPLC] as the sequence, how does the “binding to PD-L1 protein expressed on the cell surface” value [1] read?
**A.** The value was “can efficiently bind to the PD-L1 protein expressed on the cell surface; also recorded: has a high affinity for PD-L1 expressed on the surface of CHO cells”.

**Q.** And the “blocking of the binding of PD-1/PD-L1” value (PD-1/PD-L1)?
**A.** The value was “can effectively block the binding of PD-1/PD-L1”.

**Q.** What about the “growth rate of mouse tumor / tumor size” value (mouse tumor; treatment from tumor size 100 mm^3, versus PBS group) of the same sequence?
**A.** Its value is “can significantly reduce the growth rate of mouse tumor; also recorded: significantly smaller than that of the control group”.

**Q.** And the “survival time of mice” value (mouse tumor; versus PBS group)?
**A.** The value was “prolong the survival time of mice”.

Reference: patent US11377501B2, “Peptide having high affinity for PD-L1 protein and use thereof” (priority 2017, dated 2022)
